Reference: patent publication US12421249B2, “Inhibitors of APOL1 and methods of using same” (Vertex Pharmaceuticals Incorporated, priority 2020, dated 2025)

Legend:
APOL1 G1 = molecular target: T1, APOL1 G1 (Homo sapiens, UniProt O14791, I384M/S342G); test: Trypanosoma brucei brucei Lysis Assay Using APOL1 Recombinant Protein (AlamarBlue viability readout); format: cell-based; settings: Trypanosome Assay; for IC50: IP50 = IC50 for cell proliferation, read-out: Trypanosome Assay IP50; for Emax: read-out: Trypanosome Assay Max Activity (%)
T1 sequence (O14791 28-398 S342G/I384M): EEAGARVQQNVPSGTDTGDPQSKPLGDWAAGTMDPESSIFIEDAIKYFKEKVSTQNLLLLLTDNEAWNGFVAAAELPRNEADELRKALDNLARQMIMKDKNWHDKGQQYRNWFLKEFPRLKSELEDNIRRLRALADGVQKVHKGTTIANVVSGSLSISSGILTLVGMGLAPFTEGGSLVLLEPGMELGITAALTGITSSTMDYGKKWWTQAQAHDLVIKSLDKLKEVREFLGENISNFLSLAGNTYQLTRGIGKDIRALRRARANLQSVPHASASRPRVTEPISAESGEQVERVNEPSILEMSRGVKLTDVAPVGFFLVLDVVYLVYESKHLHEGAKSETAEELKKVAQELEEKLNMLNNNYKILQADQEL
Excerpt: Trypanosoma brucei brucei is a blood stream parasite to which human, gorillas, and baboons are immune due to the presence of the APOL1 protein in their HDL particles. The protein is uptaken by the parasite via the TbHpHb receptor located in its flagellar pocket and is bonded by the Hpr protein contained in the HDL particles which triggers the receptor endocytosis by the parasite.
Following endocytosis, the formed vesicle containing the HDL particle matures from early to late endosome, and subsequently to lysosome. The concomitant pH change in the lumen of the vesicle triggers the insertion of the APOL1 protein into the membrane of the late endosome/lysosome and hereby triggers lysosomal membrane permeabilization and as a further downstream event, trypanosome lysis. Trypanosoma brucei brucei is sensitive to lysis by all three APOL1 variants (G0, G1, and G2).
The Trypanosoma brucei brucei lysis assay is a lysis assay of the parasite using recombinant APOL1 protein variant followed by a fluorescent detection method of viability by the addition of AlamarBlue reagent to the assay well, a general metabolic redox indicator (AlamarBlue assay).
Briefly, the AlamarBlue active compound, resazurin, a blue, water soluble, non-toxic and cell permeable molecule, which can be followed by absorbance, is reduced by various metabolic pathways into resorufin, a red compound which can be followed by either absorbance or fluorescence. The assay allows the calculation of the percent viability (percent of living Trypanosomes remaining in each well) at the end of a lysis relative to the untreated condition by interpolation of fluorescent values (FLU) on a standard curve with a known amount of seeded trypanosome/well.
Trypanosoma brucei brucei (ATCC, Cat. No. PRA-382)
• Lister 427 VSG 221 bloodstream form.
Equipment • E1-Clip Tip pipette 12 channel adjustable 2-125 μL, Cat. No. 4672070BT • ThermoFisher MultiDrop 384, Cat. No. 5840300 • Multidrop • Agilent Bravo, Cat. No. G5409A • Bravo • SpectraMax M5 Assay Ready Plates (ARPs) • ARPs comes in two formats: • […] final top concentration with a 2.5 fold dilution down. • […] final top concentration with a 3 fold dilution down. • Both have a 10 point Dose response. • 0.1% DMSO final in the Black Assay Plate. • Compounds are diluted 1000 fold in the Black Assay Plate. • Each plate is designed for 14 compounds in duplicate. • In the final Black Assay Plate: • Column 1: Media only (no APOL1) (100% viable) • Column 2-23: 0.05 μg/mL APOL1 (˜EC90) (10% viable with APOL1) • Column 24: 0.1 μg/mL APOL1 (EC100) (Approx. […] Step 2, Day 4 • Centrifuge at 800×g for 5 minutes at room temperature. • Resuspend in 1 mL media. • Make a 1:25 fold dilution (10 μL/240 μL media). • Count on a hemocytometer (after adding parasites). • Let sit for 1-2 minutes for the parasites to settle. • Count should be approximately 100 viable motile parasites/16 grid or approximately 25×10^6 parasites/flask. • Passage the parasites by adding 1×10^6 parasites/T75 flask in 20 mL media. • Passage the parasites by adding 2.33×10^6 parasites/T175 flask in 46.6 mL media. • For every T75 flask should make enough for approximately 1.5×384 well assay plates. • For every T175 flask should make enough for approximately 3.8×384 well assay plates. Step 3, Day 6 • Centrifuge at 800×g for 5 minutes. • Resuspend in 3 mL assay media (No phenol red, no FBS) per 75 starting flask. • Resuspend in 7 mL assay media (No phenol red, no FBS) per 175 flask • Make a 1:25 fold dilution. • Count by hemocytometer. • Every T75 flask set up should have approximately 75×10^6 parasites/flask (verify doubling time=8.7 hours±1 hour). • Every T175 flask set up should have approximately 175×10^6 parasites/flask (verify doubling time=8.7 hours±1 hour). • Require 46×10^6 parasites per 384 well plate (at 120,000 parasites per well). […]

APOL1 = molecular target: T2, APOL1 (Homo sapiens, UniProt O14791); test: Multi-Tox Assay (MultiTox-Fluor Multiplex Cytotoxicity Assay in tet-inducible APOL1 T-REx-HEK293 cells; Table 46 does not say which APOL1 variant G0/G1/G2); format: cell-based; settings: APOL1 variant not given; for IC50: IP50 = IC50 for cell proliferation
T2 sequence (O14791 1-398 S342G/I384M): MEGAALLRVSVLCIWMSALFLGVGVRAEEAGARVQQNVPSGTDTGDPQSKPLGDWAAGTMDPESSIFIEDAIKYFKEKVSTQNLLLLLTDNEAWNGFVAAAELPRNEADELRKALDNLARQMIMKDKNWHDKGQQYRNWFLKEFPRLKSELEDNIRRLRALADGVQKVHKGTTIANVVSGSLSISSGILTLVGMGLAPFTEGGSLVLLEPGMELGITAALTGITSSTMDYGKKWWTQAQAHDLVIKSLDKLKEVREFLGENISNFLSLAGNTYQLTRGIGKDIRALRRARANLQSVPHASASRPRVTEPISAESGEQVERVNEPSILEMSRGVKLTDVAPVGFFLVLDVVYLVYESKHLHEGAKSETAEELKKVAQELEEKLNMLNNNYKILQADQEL

## C[C@H]1C[C@@]2(C[C@@H](c3ccc(S(N)(=O)=O)cc3F)N1)OCCc1cc(Cl)sc12 (racemic) [Compound 78]
APOL1 G1
  IC50: < 50 nM
  Emax: 102%
APOL1
  IC50: < 50 nM

## C[C@H]1C[C@@]2(C[C@@H](c3cocn3)N1)OCCc1cc(Cl)sc12 (racemic) [Compound 79]
APOL1 G1
  IC50: < 50 nM
  Emax: 97.5%
APOL1
  IC50: < 50 nM

## C[C@H]1C[C@@]2(C[C@@H](c3ccc(=O)n(C)c3)N1)OCCc1cc(Cl)sc12 (racemic) [Compound 80]
APOL1 G1
  IC50: < 50 nM
APOL1
  IC50: < 50 nM

## C[C@H]1C[C@@]2(C[C@@H](c3ccccc3)N1)OCCc1cc(Cl)sc12 (racemic) [Compound 81]
APOL1 G1
  IC50: < 50 nM
APOL1
  IC50: < 50 nM

## Cc1ncc([C@@H]2C[C@]3(C[C@H](C)N2)OCCc2cc(Cl)sc23)cn1 (racemic) [Compound 82]
APOL1 G1
  IC50: < 50 nM
  Emax: 106%
APOL1
  IC50: < 50 nM

## C[C@H]1C[C@@]2(C[C@@H](c3ccccn3)N1)OCCc1cc(Cl)sc12 (racemic) [Compound 83]
APOL1 G1
  IC50: < 50 nM
  Emax: 111%
APOL1
  IC50: < 50 nM

## COc1ccc2[nH]c([C@@H]3C[C@]4(C[C@H](C)N3)OCCc3cc(Cl)sc34)cc2n1 (racemic) [Compound 84]
APOL1 G1
  IC50: < 50 nM
  Emax: 112%
APOL1
  IC50: < 50 nM

## C[C@H]1C[C@@]2(C[C@@H](c3c[nH]cn3)N1)OCCc1cc(Cl)sc12 (racemic) [Compound 85]
APOL1 G1
  IC50: < 50 nM
APOL1
  IC50: < 50 nM

## C[C@H]1C[C@@]2(C[C@@H](c3cc(C4CC4)no3)N1)OCCc1cc(Cl)sc12 (racemic) [Compound 87]
APOL1 G1
  IC50: < 50 nM
APOL1
  IC50: < 50 nM

## C[C@H]1C[C@@]2(C[C@@H](c3cc(-c4ccccn4)n[nH]3)N1)OCCc1cc(Cl)sc12 (racemic) [Compound 88]
APOL1 G1
  IC50: < 50 nM
  Emax: 98%
APOL1
  IC90: < 50 nM
  Multi-Tox Assay Max Activity (%): 99.3%
  IC50: < 50 nM

## C[C@H]1C[C@@]2(C[C@@H](c3ccc(N(C)C)nc3)N1)OCCc1cc(Cl)sc12 (racemic) [Compound 89]
APOL1 G1
  IC50: < 50 nM
  Emax: 101%
APOL1
  IC50: < 50 nM

## COCCn1cc([C@@H]2C[C@]3(C[C@H](C)N2)OCCc2cc(Cl)sc23)cn1 (racemic) [Compound 90]
APOL1 G1
  IC50: < 50 nM
  Emax: 104%
APOL1
  IC50: < 50 nM

## C[C@H]1C[C@@]2(C[C@@H](c3cccnn3)N1)OCCc1cc(Cl)sc12 (racemic) [Compound 92]
APOL1 G1
  IC50: < 50 nM
  Emax: 103%
APOL1
  IC50: < 50 nM

## C[C@H]1C[C@@]2(C[C@@H](c3ccnnc3)N1)OCCc1cc(Cl)sc12 (racemic) [Compound 93]
APOL1 G1
  IC50: 50 to 500 nM
  Emax: 112%
APOL1
  IC50: < 50 nM

## Cc1ncc([C@@H]2C[C@]3(C[C@H](C)N2)OCCc2cc(Cl)sc23)o1 (racemic) [Compound 94]
APOL1 G1
  IC50: < 50 nM
  Emax: 104%
APOL1
  IC50: < 50 nM

## C[C@H]1C[C@@]2(C[C@@H](c3cnc(NC(C)(C)CO)nc3)N1)OCCc1cc(Cl)sc12 (racemic) [Compound 95]
APOL1 G1
  IC50: 50 to 500 nM
  Emax: 106%
APOL1
  IC50: < 50 nM

## C[C@H]1C[C@@]2(C[C@@H](c3ccon3)N1)OCCc1cc(Cl)sc12 (racemic) [Compound 96]
APOL1 G1
  IC50: < 50 nM
  Emax: 104%
APOL1
  IC50: < 50 nM

## Cc1cc([C@@H]2C[C@]3(C[C@H](C)N2)OCCc2cc(Cl)sc23)nn1C (racemic) [Compound 98]
APOL1 G1
  IC50: < 50 nM
  Emax: 110%
APOL1
  Multi-Tox Assay Max Activity (%): 99.0%
  IC50: < 50 nM

## COc1ccc([C@@H]2C[C@]3(C[C@H](C)N2)OCCc2cc(Cl)sc23)cc1O (racemic) [Compound 99]
APOL1 G1
  IC50: < 50 nM
  Emax: 102%
APOL1
  Multi-Tox Assay Max Activity (%): 99.0%
  IC50: < 50 nM

## C[C@H]1C[C@@]2(C[C@@H](c3cnn(C4CCOCC4)c3)N1)OCCc1cc(Cl)sc12 (racemic) [Compound 100]
APOL1 G1
  IC50: < 50 nM
  Emax: 99%
APOL1
  IC50: < 50 nM

## C[C@H]1C[C@@]2(C[C@@H](c3cnccn3)N1)OCCc1cc(Cl)sc12 (racemic) [Compound 101]
APOL1 G1
  IC50: 50 to 500 nM
  Emax: 114%
APOL1
  Multi-Tox Assay Max Activity (%): 100.0%
  IC50: < 50 nM

## CCOc1cc([C@@H]2C[C@]3(C[C@H](C)N2)OCCc2cc(Cl)sc23)ccc1O (racemic) [Compound 102]
APOL1 G1
  IC50: < 50 nM
  Emax: 112%
APOL1
  Multi-Tox Assay Max Activity (%): 99.8%
  IC50: < 50 nM

## C[C@H]1C[C@@]2(C[C@@H](c3cnn(CC(C)(CO)CO)c3)N1)OCCc1cc(Cl)sc12 (racemic) [Compound 103]
APOL1 G1
  IC50: 50 to 500 nM
  Emax: 118%
APOL1
  IC50: < 50 nM

## Cc1nc([C@@H]2C[C@]3(C[C@H](C)N2)OCCc2cc(Cl)sc23)co1 (racemic) [Compound 104]
APOL1 G1
  IC50: 50 to 500 nM
  Emax: 100%
APOL1
  Multi-Tox Assay Max Activity (%): 99.3%
  IC50: < 50 nM

## COc1ccccc1-c1ncc([C@@H]2C[C@]3(C[C@H](C)N2)OCCc2cc(Cl)sc23)cn1 (racemic) [Compound 105]
APOL1 G1
  IC50: < 50 nM
  Emax: 72%
APOL1
  Multi-Tox Assay Max Activity (%): 99.3%
  IC50: < 50 nM

## COCc1cc([C@@H]2C[C@]3(C[C@H](C)N2)OCCc2cc(Cl)sc23)no1 (racemic) [Compound 106]
APOL1 G1
  IC50: < 50 nM
  Emax: 107%
APOL1
  IC50: < 50 nM

## CCOc1ccc([C@@H]2C[C@]3(C[C@H](C)N2)OCCc2cc(Cl)sc23)cc1O (racemic) [Compound 107]
APOL1 G1
  IC50: < 50 nM
  Emax: 92.5%
APOL1
  Multi-Tox Assay Max Activity (%): 99.7%
  IC50: < 50 nM

## Cc1cc([C@@H]2C[C@]3(C[C@H](C)N2)OCCc2cc(Cl)sc23)ccc1O (racemic) [Compound 108]
APOL1 G1
  IC50: < 50 nM
  Emax: 94.5%
APOL1
  Multi-Tox Assay Max Activity (%): 99.0%
  IC50: < 50 nM

## C[C@H]1C[C@@]2(C[C@@H](c3cccc(C(N)=O)c3)N1)OCCc1cc(Cl)sc12 (racemic) [Compound 109]
APOL1 G1
  IC50: 50 to 500 nM
  Emax: 100%
APOL1
  Multi-Tox Assay Max Activity (%): 100.0%
  IC50: < 50 nM

## COc1nccc([C@@H]2C[C@]3(C[C@H](C)N2)OCCc2cc(Cl)sc23)n1 (racemic) [Compound 110]
APOL1 G1
  IC50: 50 to 500 nM
  Emax: 115%
APOL1
  IC50: < 50 nM
